Measurements as given in ChEMBL document CHEMBL1201862, “PubChem BioAssay data set” (2004).
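Where inhibition never reached the appropriate level, the endpoint shown equals the highest concentration tested. Otherwise, values were interpolated linearly from a five-concentration, 48-hour dose response in 96-well plates. GI50: concentration for 50% inhibition of growth.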 Activity calls are given as the source filed them. Rule as the data show it: active = GI50 up to about 1.1 µM and inactive = higher.

Assays:
Assay in all cases: DTP human tumour cell line panel, 48 h
[1] = test system: SR
[2] = test system: HT-29
[3] = test system: NCI-H460
[4] = test system: 786-0
[5] = test system: BT-549
[6] = test system: LOX IMVI
[7] = test system: HCC 2998
[8] = test system: RXF 393
[9] = test system: U-251
[10] = test system: HOP-92
[11] = test system: TK-10
[12] = test system: SK-OV-3
[13] = test system: SF-268
[14] = test system: SN12C
[15] = test system: HCT-116
[16] = test system: PC-3
[17] = test system: UO-31
[18] = test system: OVCAR-5

Measured: GI50

CCC(C(=O)C(=O)C(CC)P1(=O)OC(C)(C)CN1C(C)(C)C)P1(=O)OC(C)(C)CN1C(C)(C)C (centres undefined)
inactive: [1] 60.4 µM | [2] > 100 µM | [3] > 100 µM | [4] > 100 µM | [5] > 100 µM | [6] > 100 µM | [7] > 100 µM | [8] > 100 µM | [9] > 100 µM | [10] 45.9 µM | [11] > 100 µM | [12] > 100 µM | [13] > 100 µM | [14] > 100 µM | [15] > 100 µM | [16] > 100 µM | [17] > 100 µM

COC(=O)c1csc(-c2csc(CCNC(=O)OC(C)(C)C)n2)n1
inactive: [1] 59.7 µM | [2] > 100 µM | [3] > 100 µM | [4] > 100 µM | [5] 40.4 µM | [7] > 100 µM | [18] > 100 µM | [8] > 100 µM | [9] > 100 µM | [10] > 100 µM | [11] > 100 µM | [12] > 100 µM | [13] > 100 µM | [14] > 100 µM | [15] > 100 µM | [16] 56.1 µM | [17] > 100 µM

N=C(N)NCCN1CCCCCc2ccccc21
inactive: [1] > 10 µM | [2] > 10 µM | [3] > 10 µM | [4] > 10 µM | [5] 7.08 µM | [6] > 10 µM | [7] > 10 µM | [18] > 10 µM | [8] > 10 µM | [9] > 10 µM | [10] 5.24 µM | [11] > 10 µM | [12] > 10 µM | [13] 3.27 µM | [14] > 10 µM | [15] > 10 µM | [16] 7.26 µM

Cc1cn2c(/C=C3/C(=O)Nc4cccc(Cl)c43)c(Cl)nc2s1
inactive: [1] > 100 µM | [2] > 100 µM | [4] 18.5 µM | [5] 22.3 µM | [6] > 100 µM | [7] 6.34 µM | [18] > 100 µM | [8] 25.4 µM | [9] 5.26 µM | [10] 34.3 µM | [11] 17.9 µM | [12] 27.7 µM | [13] 11.3 µM | [14] > 100 µM | [15] 60.1 µM | [16] > 100 µM | [17] > 100 µM

COc1cc(S(=O)(=O)Nc2ccc(-c3csc(N4C(=O)CSC4c4ccccc4)n3)cc2)ccc1Cl (centres undefined)
inactive: [1] 32.3 µM | [2] 54.2 µM | [3] 31.4 µM | [4] 76.2 µM | [5] 75.5 µM | [6] 30.5 µM | [7] 20.4 µM | [18] > 100 µM | [8] 29.2 µM | [10] 20.6 µM | [12] > 100 µM | [13] 33.7 µM | [14] > 100 µM | [15] 54 µM | [16] 41.3 µM | [17] 79.4 µM

Cc1ccc(N2C(N)=C(C#N)C(C#N)(C#N)C2c2ccccc2)cc1 (centres undefined)
inactive: [1] 8.65 µM | [2] 3.97 µM | [4] 14.2 µM | [5] 10.2 µM | [6] 11.5 µM | [7] 13 µM | [18] 15.5 µM | [8] 6.64 µM | [9] 17.3 µM | [10] 7.78 µM | [11] 14.4 µM | [12] 16.7 µM | [13] 24.9 µM | [14] 14.4 µM | [15] 3.79 µM | [16] 18.8 µM | [17] 15.8 µM

Nc1ccc2c3c1cccc3c(=O)n1c3ccc(Cc4ccc5c(c4)nc4c6ccc(N)c7cccc(c(=O)n54)c76)cc3nc21
inactive: [1] > 100 µM | [2] > 100 µM | [3] > 100 µM | [4] > 100 µM | [5] > 100 µM | [6] > 100 µM | [7] > 100 µM | [18] > 100 µM | [8] > 100 µM | [9] > 100 µM | [10] > 100 µM | [12] > 100 µM | [14] > 100 µM | [15] > 100 µM | [16] > 100 µM | [17] > 100 µM

c1ccc2c(c1)ccc1ncccc12
inactive: [1] 58.2 µM | [2] > 100 µM | [3] > 100 µM | [4] > 100 µM | [5] 47.1 µM | [6] > 100 µM | [7] > 100 µM | [18] > 100 µM | [8] > 100 µM | [9] 79.3 µM | [10] 44.6 µM | [11] > 100 µM | [13] > 100 µM | [14] > 100 µM | [15] > 100 µM | [16] 98.2 µM | [17] > 100 µM
